PMC8401465, “In Vitro Testing of Alternative Synthetic and Natural Antiparasitic Compounds against the Monogenean Sparicotyle chrysophrii” (Pathogens, 2021)
Where two headings read alike, the source gives them in different places.

How the values were obtained:
[1] = system: Sparicotyle chrysophrii adults; assay: microbe, parasite or virus in culture; details: for LC20 (95% CI), toxicity level for adult S. chrysophrii: 20% mortality; for LC50: read-out: LC50 (95% CI), toxicity level for adult S. chrysophrii; for LC80 (95% CI), toxicity level for adult S. chrysophrii: 80% mortality; for b (SE), slope of dose–response model / e (SE), midpoint of dose–response model: Weibull type 2, c = 0, d = 1, mortality at 4 h post-exposure; for fold less toxic for S. chrysophrii than eucalyptol and garlicin 80%: comparison with eucalyptol and garlicin 80%; for fold lower toxicity for S. chrysophrii than curcumin: comparison with curcumin
Experimental: Subsequently, the monogeneans (n = 6, in triplicate) were exposed to a range of seven concentrations tailored according to each compound’s activity observed in preliminary tests. The range for each compound was scaled down to an appropriate order of magnitude so that each compound reached 100% mortality at 4 h post-exposure (Table 1).
For the dose–response curve fitting, the drc package for R (v4.0.4) was used. An appropriate nonlinear regression model was selected between log-logistic and Weibull type models, based on the Akaike information criterion (AIC) and lack-of-fit test criteria through the use of mselect function. The best scoring model was Weibull type 2 model (asymmetrical) with lower and upper limits fixed to 0 and 1, respectively, as mortality in all assays reached 100%. […] Model parameters and estimated lethal doses (20%, 50%, and 80%) were calculated with standard errors and 95% confidence intervals, based on the delta method, respectively, and adjusted for simultaneous inference through multcomp package. Dose–response curves were visualised using ggplot2 library.

Vibrio harveyi = assay: Bactericidal activity (MTT), Vibrio harveyi; assay type: cell-based; details: for bactericidal activity against V. harveyi: synthetic compounds, at increased concentrations; for inhibition at 0.1 µM / inhibition at 1 µM / inhibition at 10 µM: Vibrio harveyi; for antimicrobial activity against V. harveyi: p < 0.05
Experimental: (§1) Two bacterial fish pathogens, Vibrio harveyi and V. anguillarum were used to test the bactericidal activity of the target compounds, being previously isolated and identified as described in [65]. Lab strains were maintained at −20 °C in Tryptone Soy Broth (TSB, Difco Laboratories, Inc., Detroit, MI, USA) supplemented with 1% (w/v) NaCl (TSB1) and 50% (v/v) glycerol. […] Bacteria in TSB medium were then cultured at the same temperature with continuous shaking (100 rpm) for 24 h. Exponentially grown bacteria were resuspended in sterile PBS and adjusted to the concentration of 10^8 colony forming units (cfu)/mL. Each target compound (20 μL; concentrations 0.1, 1, and 10 µM) was added (in triplicates) to the wells of a flat-bottom 96-well plate, except for the positive control that consisted of 0.5% DMSO in PBS. Aliquots of 20 μL of the previously cultured bacteria were added, and the plate was incubated for 5 h at 25 °C. […] The plate was then centrifuged (4500 rpm, 10 min) and the precipitate dissolved in 200 μL of DMSO. The solution (100 μL) from each well was transferred to another flat-bottom 96-well plate. The absorbance of the dissolved formazan was measured at 570 nm. Bactericidal activity was expressed as percentage of nonviable bacteria, calculated as the difference between absorbance of surviving bacteria compared to the absorbance of bacteria in positive controls (100%).

Vibrio anguillarum = assay: Bactericidal activity (MTT), Vibrio anguillarum; assay type: cell-based; details: for antibacterial activity against V. anguillarum: among the natural compounds; for antibacterial activity against V. anguillarum / antimicrobial activity against V. anguillarum: p < 0.05; for inhibition at 0.1 µM / inhibition at 1 µM / inhibition at 10 µM: Vibrio anguillarum
Experimental: as §1

[2] = system: Sparicotyle chrysophrii adults; assay: microbe, parasite or virus in culture; details: for mortality at 1000 µM: Sparicotyle chrysophryii
Experimental: Firstly, the adult monogeneans were exposed to a range of four concentrations of tested compounds encompassing the full dose–response range; each compound stock at 10 mM was serially diluted 10 (1 mM), 10^2 (0.1 mM), 10^3 (0.01 mM), and 10^4 (1 µM) times. […] Ten monogeneans per well (in triplicate) were added to 2 mL sterile seawater (SW) in 6-well plates, checked at the stereomicroscope for visible signs of mechanical damage, and exposed to selected concentrations in the dark at room temperature (Table 1). The number of live/dead parasites was recorded under the stereomicroscope at 1, 4, 12, and 24 h post-exposure. S. chrysophrii was considered to be alive if it performed any type of movement autonomously or 5 s after gentle probing with a dissection needle. Negative controls comprised the seawater with up to 0.5% of DMSO in total volume, the latter used as a solvent for each compound.

[3] = 50% mortality, 4 h post-exposure
[4] = 0.1 µM, 5 h at 25 °C, read-out: Bactericidal activity (%)
[5] = 1 µM, 5 h at 25 °C, read-out: Bactericidal activity (%)
[6] = 10 µM, 5 h at 25 °C, read-out: Bactericidal activity (%)
[7] = 5 h, read-out: Bactericidal activity (%)

Compound	LC20 (95% CI), toxicity level for adult S. chrysophrii ([1]; 4 h post-exposure)	LC50 [1, 3]	LC80 (95% CI), toxicity level for adult S. chrysophrii ([1]; 4 h post-exposure)	b (SE), slope of dose–response model [1]	e (SE), midpoint of dose–response model [1]	inhibition (Vibrio harveyi; [4])	inhibition (Vibrio harveyi; [5])	inhibition (Vibrio harveyi; [6])	inhibition (Vibrio anguillarum; [4])	inhibition (Vibrio anguillarum; [5])	inhibition (Vibrio anguillarum; [6])	potency / effect against V. anguillarum as judged in the discussion (Vibrio anguillarum)	inhibition at 0.1 µM (Vibrio harveyi; [4])	inhibition at 1 µM (Vibrio harveyi; [5])	inhibition at 10 µM (Vibrio harveyi; [6])	inhibition at 0.1 µM (Vibrio anguillarum; [4])	inhibition at 1 µM (Vibrio anguillarum; [5])	inhibition at 10 µM (Vibrio anguillarum; [6])	antimicrobial activity against V. harveyi (Vibrio harveyi; 10 µM)	further results
1R-Camphor	0.71 (0.53–0.89) mM	910 µM	1.1 (0.94–1.26) mM	4.54 (0.91)	0.99 (0.05)	-23.6 ± 2.6%	7.7 ± 10.7%	9.3 ± 7.4%	-38.8 ± 22%	-27.8 ± 19%	-17.4 ± 9.3%	–	–	–	–	–	–	–	–	fold less toxic for S. chrysophrii than eucalyptol and garlicin 80% [1]: approximately 1.2
CC(C)=C[C@@H]1[C@@H](C(=O)O)C1(C)C (relative stereo) [(+)-trans-Chrysanthemic acid]	0.58 (0.43–0.74) mM	840 µM	1.1 (0.79–1.41) mM	3.12 (0.69)	0.94 (0.07)	-47.7 ± 5.9%	-25.4 ± 14.6%	13.2 ± 6.5%	-1.4 ± 13%	8.15 ± 16.3%	32 ± 9%	the effect was observed only against V. anguillarum	–	–	–	–	–	–	–	fold less toxic for S. chrysophrii than eucalyptol and garlicin 80% [1]: approximately 1.2; antibacterial activity against V. anguillarum (Vibrio anguillarum): strongest antibacterial activity
Oc1c(Cl)cc(Cl)cc1Sc1cc(Cl)cc(Cl)c1O [Bithionate sodium, 2,2′-sulfanediylbis(4,6-dichlorophenolate), reference compound]	0.003 (0.002–0.005) mM	5 to 10 µM	0.01 (0.01–0.01) mM	1.93 (0.36)	0.01 (0.001)	-8.8 ± 1.8%	3.5 ± 11.6%	40 ± 0.7%	4.9 ± 11.8%	49.2 ± 11.6%	96.4 ± 1.7%	–	–	–	–	–	–	–	–	bactericidal activity against V. harveyi (Vibrio harveyi): significant bactericidal activity; antimicrobial activity against V. anguillarum (Vibrio anguillarum; 10 µM): best antimicrobial activity
O=c1ccc2ccccc2o1 [Coumarin]	–	–	–	–	–	–	–	–	–	–	–	–	-33.4 ± 3.9%	-21.2 ± 13.3%	-1.9 ± 7.6%	1.5 ± 8.38%	13.2 ± 13.4%	17.3 ± 5%	–	mortality at 1000 µM ([2]; 24 h): 100%; antibacterial activity against V. anguillarum (Vibrio anguillarum): strongest antibacterial activity
C=CCSCC=C [Diallyl sulphide]	–	–	–	–	–	–	–	–	–	–	–	–	-36.6 ± 6.8%	-36.4 ± 7.9%	-1.6 ± 0.7%	-11.3 ± 24.8%	-5.8 ± 11.7%	46.8 ± 4%	–	mortality at 1000 µM ([2]; 24 h): 100%; antimicrobial activity against V. anguillarum (Vibrio anguillarum; 10 µM): best antimicrobial activity
CC12CCC(CC1)C(C)(C)O2 [Eucalyptol]	0.5 (0.38–0.63) mM	–	0.83 (0.71–0.94) mM	3.99 (0.7)	0.74 (0.03)	–	–	–	–	–	–	ineffective against V. anguillarum	-2.7 ± 8.7%	-1.9 ± 12.3%	50.3 ± 6.8%	-31.7 ± 156%	-34.1 ± 10.5%	23.6 ± 3.1%	significant antimicrobial activity	LC50 ([1]; Sparicotyle chrysophryii, 4 h): 670 µM; fold lower toxicity for S. chrysophrii than curcumin [1]: approximately 3; potency / effect against V. harveyi as judged in the discussion (Vibrio harveyi): highest anti-Vibrio harveyi effect among tested natural compounds
C=CCSSCC=C [Garlicin 80%]	0.4 (0.27–0.53) mM	600 µM	0.81 (0.66–0.95) mM	2.79 (0.49)	0.68 (0.04)	20.9 ± 19.9%	28.7 ± 6.2%	42 ± 1.3%	-110 ± 84.2%	-46 ± 17.2%	-52.1 ± 31.4%	ineffective against V. anguillarum	–	–	–	–	–	–	significant antimicrobial activity	fold lower toxicity for S. chrysophrii than curcumin [1]: approximately 3; potency / effect against V. harveyi as judged in the discussion (Vibrio harveyi): highest anti-Vibrio harveyi effect among tested natural compounds
C[C@H]1C(=O)O[C@@H]2CCN3CC=C(COC(=O)[C@](C)(O)[C@]1(C)O)[C@H]23 [Monocrotaline]	–	–	–	–	–	–	–	–	–	–	–	–	–	–	–	–	–	–	significant antimicrobial activity	mortality at 1000 µM ([2]; 1 h): 100%; inhibition at 0.1 µM (Vibrio harveyi; [7]): -4.9 ± 24.9%; inhibition at 1 µM (Vibrio harveyi; [7]): 18.2 ± 10.9%; inhibition at 10 µM (Vibrio harveyi; [7]): 40.1 ± 4.1%; inhibition at 0.1 µM (Vibrio anguillarum; [7]): -73 ± 56.1%; inhibition at 1 µM (Vibrio anguillarum; [7]): -46.9 ± 32%; inhibition at 10 µM (Vibrio anguillarum; [7]): 17.9 ± 0.6%
CCN(CC)C(=O)c1cccc(C)c1 [N,N-diethyl-M-toluamide, reference compound]	–	–	–	–	–	–	–	–	–	–	–	–	–	–	–	–	–	–	–	mortality ([2]; highest concentration (1 mM), already after 1 h): 100%; inhibition (Vibrio harveyi; 0.1 µM): -0.9 ± 8.7%; inhibition (Vibrio harveyi; 1 µM): 4.5 ± 16.7%; inhibition (Vibrio harveyi; 10 µM): 13.7 ± 0.6%; bactericidal activity against V. harveyi (Vibrio harveyi): significant bactericidal activity; inhibition (Vibrio anguillarum; 0.1 µM): -61.9 ± 29%; inhibition (Vibrio anguillarum; 1 µM): -28.5 ± 24.1%; inhibition (Vibrio anguillarum; 10 µM): 9.1 ± 8.5%
